Values joined by “and” are separate entries in the source; they are usually repeats but may differ in a detail not shown here. Equal entries are not always repeated.
Columns and labels:
AKR1C2 [1] = target: T1, AKR1C2 (Homo sapiens (Human), UniProt P52895); assay: S-tetralol oxidation assay, AKR1C2; assay type: biochemical; details: NADP+ dependent oxidation of S-tetralol, S-tetralol at Km; Table 1
Experimental: Enzyme Purification: Homogenous recombinant enzymes AKR1C1-4 were prepared and purified (Burczynski, et al., 1998, Biochemistry 37:6781-6790). Enzymes were purified to constant specific activity and their purity established by SDS-PAGE. All AKR enzymes were stored at −80° C. in 20 mM potassium phosphate buffer pH 7.0 containing 30% glycerol, 1 mM EDTA, and 1 mM β-mercaptoethanol. Under standard assay conditions, the specific activity of AKR1C1 for the NAD^+ dependent oxidation of 1-acenaphthenol (Sigma) was 2.0 μmol min^−1 mg^−1. The specific activities of AKR1C2 and AKR1C3 for the NAD^+ dependent oxidation of S-tetralol (Sigma) were 1.5 and 2.0 μmol min^−1 mg^−1, respectively, and the specific activity of AKR1C4 for the NAD^+ dependent oxidation of androsterone (Steraloids) was 0.3 μmol min^−1 mg^−1. The specific activities of AKR1C enzymes were determined by measuring the formation of NADH at 340 nm using a Beckman DU640 spectrophotometer. A typical assay solution contained 100 mM potassium phosphate pH 7.0, 2.3 mM NAD^+, 200 μM 1-acenaphthenol for AKR1C1, 3.0 mM Stetralol for AKR1C2 and 1C3, and 75 μM androsterone for AKR1C4, 4% acetonitrile (v/v). The mixtures were incubated at 25° C. (AKR1C1 and 1C4) or 37° C. (AKR1C2 and 1C3) for 3 min, followed by adding a serial dilution of enzyme solution to a final volume of 1 mL to initiate the reaction. After continuously monitoring for 5 min, the increase in UV absorption using different concentrations of enzyme were recorded to calculate the initial velocity of substrate oxidation and determine enzyme-specific activity.
the inhibitory potency of the individual compounds against the AKR1C isoforms was determined by monitoring the NADP^+ dependent oxidation of S-tetralol catalyzed by the AKR1C enzymes using substrate concentrations at their Km values in the presence and absence of varying concentration of the inhibitors (Adeniji, et al., 2012, J Med Chem 55:2311-2323). Reaction systems (200 μL) contained 100 mM potassium phosphate buffer (pH 7.0), 4% DMSO, 200 μM NADP^+, a serial dilution of compounds, S-tetralol, and AKR1C enzymes. […] The concentration of AKR1C1, 1C2, 1C3, and 1C4 was 111, 86, 95, and 552 nM, respectively. Reagents were mixed and incubated at 37° C. for 10 min followed by adding AKR1C enzymes to initiate the reaction. […] To determine the pattern of inhibition, five fixed concentrations of S-tetralol were used and four different concentrations of inhibitor were used and a gobal fit of the equations for COMP, NONCOMP and UNCOMP to the data was applied using Grafit.

COX-2 = COX-2 (Mus musculus, UniProt Q05769); assay: COX-2 inhibition; assay type: biochemical
AKR1C3 [2] = target: T2, AKR1C3 (Homo sapiens (Human), UniProt P42330); assay: S-tetralol oxidation assay, AKR1C3; assay type: biochemical
Experimental: Enzymes were purified to constant specific activity and their purity established by SDS-PAGE. All AKR enzymes were stored at −80° C. in 20 mM potassium phosphate buffer pH 7.0 containing 30% glycerol, 1 mM EDTA, and 1 mM β-mercaptoethanol. […] The specific activities of AKR1C enzymes were determined by measuring the formation of NADH at 340 nm using a Beckman DU640 spectrophotometer. […] The mixtures were incubated at 25° C. (AKR1C1 and 1C4) or 37° C. (AKR1C2 and 1C3) for 3 min, followed by adding a serial dilution of enzyme solution to a final volume of 1 mL to initiate the reaction. After continuously monitoring for 5 min, the increase in UV absorption using different concentrations of enzyme were recorded to calculate the initial velocity of substrate oxidation and determine enzyme-specific activity.
Reagents were mixed and incubated at 37° C. for 10 min followed by adding AKR1C enzymes to initiate the reaction. […] To determine the pattern of inhibition, five fixed concentrations of S-tetralol were used and four different concentrations of inhibitor were used and a gobal fit of the equations for COMP, NONCOMP and UNCOMP to the data was applied using Grafit.

AKR1C2 [3] = target: T1, AKR1C2; assay: AKR1C2 catalyzed NADPH dependent reduction of 5α-DHT; assay type: biochemical; details: 5α-DHT reduction, <100 μM concentrations
Experimental: Compounds were tested for their ability to inhibit the AKR1C3 catalyzed, reduction of [^3H]-Δ^4-AD and the AKR1C2 catalyzed reduction of [^3H]-5α-DHT. Compounds were incubated with purified recombinant enzyme and radiolabeled steroid in 100 mM phosphate buffer pH7.0 and 4% DMSO at 37° C. The reaction was initiated by the addition of 1 mM NADPH, aliquots were removed over time and subsequently quenched by the addition of ice cold ethyl acetate. The ethyl acetate fraction was extracted and dried in vacuum. Steroid reference standards and extracts were dissolved in 50 μl ethyl acetate and applied to LK6D Silica TLC plates (Whatman Inc., Clifton, N.J.). TLC plates were developed using a dichloromethane/ethyl acetate (80:20 v/v) solution and were scanned with a Bioscan System 200 plate reader (Washington, D.C.). The percentage of radioactivity in the product peak was calculated assuming that the combined radioactivity in the substrate and product peaks was 100%. Initial velocities were computed by converting the percentage of radioactivity in the product peak by the specific radioactivity of the starting material to generate pmoles/min.

AKR1C3 [4] = target: T2, AKR1C3; assay: AKR1C3 catalyzed reduction of Δ4-AD; assay type: biochemical; details: E.NADPH.I complex; read-out: Ki, competitive inhibition of AKR1C3 catalyzed reduction of Δ4-AD
Description: The ethyl acetate fraction was extracted and dried in vacuum.

COX-1 = COX-1 (Ovis aries (Sheep), UniProt P05979); assay: COX-1 assay (TMPD oxidation); assay type: biochemical, ram
Experimental: The purity of the enzyme was assessed by SDS-PAGE. […] Reagents were mixed and incubated at 25° C. for 5 min followed by adding a mixture of TMPD and arachidonic acid to initiate the reaction. Specific activity was determined based on the initial velocity of the reduction of PGG2 formed in the reaction.
The effect of the compounds on COX-1 activity was determined by a continuous colorimetric assay that monitored the oxidation of N, N, N, N-tetramethyl-1,4-phenylenediamine (TMPD) when coupled to the COX catalyzed formation of PGH2 from PGG2 using arachidonic acid as substrate. […] Reagents were mixed and incubated at 25° C. for 5 min followed by adding a mixture of TMPD and arachidonic acid to initiate the reaction.

LNCaP-AKR1C3 cells [5] = assay: Radiometric assay of androgen metabolism; assay type: cell-based; details: 100 nM Δ4-AD, 30 μM compound, 48 h
Experimental: LNCaP-AKR1C3 cells seeded at a density of 1.5×10^6 cells were plated in 6 well plates in CSS media. The cells were allowed to incubate for 24 h, after which the media was aspirated and fresh CSS media with 7.5 nM (1.26 μCi) of [^3H] Δ^4-AD and 92.5 nM of cold Δ^4-AD (to obtain a final concentration of 100 nM) was added in the presence and absence of 30 μM of compound 8a in each well. The cells were incubated for 48 h, after which time the media was collected for analysis (Byrns, et al., 2012, J. Steroid. Biochem. & Mol. Biol. 130:7-15). The media was extracted twice with cold ethyl acetate. In order to determine radioactivity of each phase, a portion of each fraction was added to Ultima Gold (Perkin Elmer Life Sciences) scintillation fluid and analyzed on a TriCarb 2100 (Packard Instruments, Perkin Elmer Life Sciences), all CPM counts were blank-adjusted and reported as corrected cpm. The aqueous phases were acidified to pH 6.5 with acetic acid and subjected to treatment with 400 U of E. coli β-glucuronidase at 37° C. for 24 h. The de-conjugated androgens were re-extracted as described elsewhere herein, dried in vacuum and re-dissolved in 100 μL ethyl acetate for separation on the multi-channel LK6D Silica TLC plates. Plates were developed using dichloromethane/ethyl acetate (80:20 v/v) and scanned on the BioScan 200 plate reader.

LNCaP-AKR1C3 cells [6] = assay: Western blot of Δ4-AD induced PSA expression; assay type: cell-based; details: 100 nM Δ4-AD, 30 μM compound
Experimental: LNCaP cells stably expressing AKR1C3 (LNCaP-AKR1C3 cells) (Byrns, et al., 2012, J. Steroid. Biochem. & Mol. Biol. 130:7-15) seeded at a density of 1.5×10^6 cells were plated in 6 cm dishes containing phenol red free RPMI-1640 media supplemented with 5% CDFBS, 1% Pen/Strep and 2 mM L-Glutamine (CSS media). The cells were incubated for 24 h after which media was aspirated and fresh CSS media containing 100 nM Δ^4-AD plus and minus inhibitors. The cells were incubated for 24 h after which they were harvested in RIPA lysis buffer supplemented with protease inhibitors at 4° C. Lysate protein concentration was determined by the Bradford assay using the BIORAD protein dye (Bio-Rad). The samples were subjected to electrophoresis on a 12% SDS-PAGE gel that was subsequently transferred to a nitrocellulose membrane. The membrane was probed with the appropriate antibodies as follows; anti β-tubulin (Millipore, #05-661) anti-PSA (Meridian Life Science, Inc., #K92110R). Blots were imaged using the ECL reagent (Pierce) and GelDoc XR+ System and Image Lab software (Bio-Rad).

AKR1C1 = AKR1C1 (Homo sapiens (Human), UniProt Q04828); assay: S-tetralol oxidation assay, AKR1C1; assay type: biochemical
[7] = NADP+ dependent oxidation of S-tetralol, S-tetralol at Km, Table 1
[8] = highest inhibitor concentration (100 μM) tested

T1 sequence (P52895 whole entry): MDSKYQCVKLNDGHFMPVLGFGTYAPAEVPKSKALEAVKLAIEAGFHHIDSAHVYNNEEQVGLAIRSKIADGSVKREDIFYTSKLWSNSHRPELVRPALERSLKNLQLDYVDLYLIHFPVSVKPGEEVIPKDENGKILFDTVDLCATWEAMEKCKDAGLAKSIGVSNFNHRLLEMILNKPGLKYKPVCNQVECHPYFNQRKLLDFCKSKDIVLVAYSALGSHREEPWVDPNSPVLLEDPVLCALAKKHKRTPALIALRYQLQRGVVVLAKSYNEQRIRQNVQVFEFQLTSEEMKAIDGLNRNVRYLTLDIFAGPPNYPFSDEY
T2 sequence (P42330 whole entry): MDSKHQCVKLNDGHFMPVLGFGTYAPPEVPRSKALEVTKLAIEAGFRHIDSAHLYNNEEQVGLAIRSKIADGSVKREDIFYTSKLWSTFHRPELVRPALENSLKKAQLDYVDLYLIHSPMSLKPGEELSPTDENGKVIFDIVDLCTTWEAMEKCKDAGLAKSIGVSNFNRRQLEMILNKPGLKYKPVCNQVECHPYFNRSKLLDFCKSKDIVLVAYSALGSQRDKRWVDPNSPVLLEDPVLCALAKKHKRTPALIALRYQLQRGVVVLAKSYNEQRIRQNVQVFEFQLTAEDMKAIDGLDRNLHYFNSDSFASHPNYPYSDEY
COX-1, sequence (P05979 25-600): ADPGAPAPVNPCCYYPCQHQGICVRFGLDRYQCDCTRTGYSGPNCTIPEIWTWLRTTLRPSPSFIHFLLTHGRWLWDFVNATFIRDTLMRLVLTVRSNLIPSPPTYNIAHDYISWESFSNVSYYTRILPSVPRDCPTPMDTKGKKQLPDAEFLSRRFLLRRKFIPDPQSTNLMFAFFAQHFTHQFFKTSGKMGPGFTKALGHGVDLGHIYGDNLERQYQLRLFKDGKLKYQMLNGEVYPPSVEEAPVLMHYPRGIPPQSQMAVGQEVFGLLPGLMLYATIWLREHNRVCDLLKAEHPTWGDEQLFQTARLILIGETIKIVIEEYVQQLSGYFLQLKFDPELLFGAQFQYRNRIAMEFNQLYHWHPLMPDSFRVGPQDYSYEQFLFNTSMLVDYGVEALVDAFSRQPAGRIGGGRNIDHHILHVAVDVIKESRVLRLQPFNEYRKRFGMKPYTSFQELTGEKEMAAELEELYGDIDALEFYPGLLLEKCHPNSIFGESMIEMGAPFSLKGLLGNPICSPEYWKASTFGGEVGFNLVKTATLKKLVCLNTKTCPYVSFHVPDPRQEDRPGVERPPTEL
COX-2, sequence (Q05769 18-604 limits assumed): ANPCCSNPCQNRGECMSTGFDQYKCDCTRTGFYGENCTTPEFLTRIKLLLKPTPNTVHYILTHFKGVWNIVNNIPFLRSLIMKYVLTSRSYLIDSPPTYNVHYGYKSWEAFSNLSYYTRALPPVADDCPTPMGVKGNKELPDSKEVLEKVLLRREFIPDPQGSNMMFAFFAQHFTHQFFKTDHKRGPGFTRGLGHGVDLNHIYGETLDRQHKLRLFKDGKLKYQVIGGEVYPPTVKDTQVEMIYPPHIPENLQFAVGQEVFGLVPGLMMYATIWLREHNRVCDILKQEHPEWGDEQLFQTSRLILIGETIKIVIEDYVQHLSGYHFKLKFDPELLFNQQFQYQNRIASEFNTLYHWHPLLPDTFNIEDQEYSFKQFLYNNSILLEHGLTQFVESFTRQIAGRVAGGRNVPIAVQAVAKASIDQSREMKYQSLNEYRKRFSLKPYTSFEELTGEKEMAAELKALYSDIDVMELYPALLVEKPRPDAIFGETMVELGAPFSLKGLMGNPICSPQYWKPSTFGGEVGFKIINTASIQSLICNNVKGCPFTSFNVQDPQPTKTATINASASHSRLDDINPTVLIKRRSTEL
AKR1C1, sequence (Q04828 whole entry, looked up): as the sequence (P52895 whole entry) above, with V38T, H47R, V54L, S87C, M151V, H170R, L172Q counted along it

For `CCC(C(=O)O)c1ccc2cc(OC)ccc2c1` (racemic) [LM5750(±) 8, 2-(6-Methoxynaphthalen-2-yl)butanoic Acid], the IC50 (AKR1C2 [1]) was 7600 ± 950 nM, the “inhibitory activity on COX-2” value (COX-2; maximum concentration of arachidonic acid tested as substrate (10 μM)) was “no inhibitory activity” and the IC50 (AKR1C3 [2]; S-tetralol oxidation) was 120 nM.
With `CCc1ccc2cc(C(C)C(=O)O)ccc2c1` (racemic) [LM5751(±) 2, 2-(6-Ethylnaphthalen-2-yl)propanoic Acid] the IC50 (AKR1C2 [1]) was 1900 ± 110 nM and the IC50 (AKR1C3 [2]; [7]) was 120 ± 7.5 nM.
In the case of `CSc1ccc2cc(C(C)C(=O)O)ccc2c1` (racemic) [LM5752(±) 4, 2-(6-(Methylthio)naphthalen-2-yl)propanoic Acid], the IC50 (AKR1C2 [1]) is reported as 1500 ± 140 nM, the IC50 (AKR1C3 [2]; S-tetralol oxidation) is reported as 60 nM and the “increase in the inhibitory potency for AKR1C3” value (AKR1C3 [2]; over naproxen) is reported as 3 fold.
`CCOc1ccc2cc(C(C)C(=O)O)ccc2c1` (racemic) [LM5753(±) 3, 2-(6-Ethoxynaphthalen-2-yl)propanoic Acid] gave an IC50 (AKR1C2 [1]) of 2400 ± 240 nM and an IC50 (AKR1C3 [2]; [7]) of 100 ± 7.6 nM.
For `CC(C(=O)O)c1ccc2cc([S+](C)[O-])ccc2c1` (racemic) [LM5754(±) 5, 2-(6-(Methylsulfinyl)naphthalen-2-yl)propanoic Acid], the IC50 (AKR1C2 [1]) was 6300 ± 350 nM.
`CC(C(=O)O)c1ccc2cc(S(C)(=O)=O)ccc2c1` (racemic) [LM5754(±) 6, 2-(6-(Methylsulfonyl)naphthalen-2-yl)propanoic Acid] showed an IC50 (AKR1C2 [1]) of 3000 ± 140 nM.
`CCC(C(=O)NS(C)(=O)=O)c1ccc2cc(OC)ccc2c1` (racemic) [LM5885 (±) 7, 2-(6-Methoxynaphthalen-2-yl)-N-(methylsulfonyl)butanamide] showed an IC50 (AKR1C2 [1]) of 34000 nM.
`CSc1ccc2cc([C@@H](C)C(=O)O)ccc2c1` [(R)-4a, 2(R)-(6-(methylthio)naphthalen-2-yl)propanoic acid] showed an IC50 (AKR1C2 [1]) of 4350 ± 610 nM and an IC50 (AKR1C3 [2]; [7]) of 50 ± 1.5 nM.
`COc1ccc2cc(CC(=O)O)ccc2c1` [DesmethylNaproxen 10, 2-(6-methoxynaphthalen-2-yl)acetic acid] showed an IC50 (AKR1C2 [1]) of 19000 ± 3700 nM and an IC50 (AKR1C3 [2]; [7]) of 650 ± 110 nM.
For `COc1ccc2cc(C(C)(C)C(=O)O)ccc2c1` [DimethylNaproxen 9, 2-(6-methoxynaphthalen-2-yl)-2-methylpropanoic acid], the IC50 (AKR1C2 [1]) was 1320 nM, the IC50 (AKR1C3 [2]; [7]) was 270 nM and the “Ratio IC50 value (AKR1C2/AKR1C3)” value (AKR1C3 [2]; selectivity for AKR1C3 over AKR1C2, Table 1) was 5.
In the case of `CC[C@@H](C(=O)O)c1ccc2cc(OC)ccc2c1` [LM5750B 8a, 2(R)-(6-methoxynaphthalen-2-yl)butanoic acid], the “inhibition of AKR1C2” value (AKR1C2 [3]) is reported as “did not display any significant inhibition”, the Ki (AKR1C3 [4]) is reported as 750 nM and the IC50 (AKR1C2 [1]) is reported as 46400 nM and 48100 nM. For the same molecule, the IC50 (COX-1; arachidonic acid as substrate) was > 100000 nM, the inhibition at 100 µM (COX-1; [8]) was < 20% and the “production of 3H-testosterone glucuronide” value (LNCaP-AKR1C3 cells [5]) was “significantly inhibited”. The “Δ4-AD mediated increase in PSA expression” value (LNCaP-AKR1C3 cells [6]) was “inhibited”, the Ki (AKR1C3 [2]; E.NADP+.I complex, read-out: Ki, competitive inhibition of AKR1C3 catalyzed oxidation of S-tetralol) was 31 nM and the IC50 (AKR1C3 [2]; [7]) was 110 ± 10 nM. The “preference for the E.NADP+ complex” value (AKR1C3 [2]; over E.NADPH complex) was 20 fold, the “pattern of AKR1C3 inhibition” value (AKR1C3 [2]; oxidation of S-tetralol) was “competitively inhibited” and the IC50 (AKR1C1) was 50000 nM.
`COc1ccc2cc([C@@H](C)C(=O)O)ccc2c1` [R-Naproxen (1a), reference compound] was tested, and the IC50 (AKR1C2 [1]) was 2750 nM, the “inhibition of COX-1 activity” value (COX-1; [8]) was “less than 20%” and the IC50 (COX-2; Table 2) was > 25000 nM.
`COc1ccc2cc([C@H](C)C(=O)O)ccc2c1` [S-Naproxen (1), (S)-2-(6-methoxynaphthalen-2-yl)propanoic acid, reference compound] gave an IC50 (AKR1C2 [1]) of 1260 ± 150 nM.

Reference: patent US11459295B2, “2-beta-naphthyl-acetic acid analogs as AKR1C3 inhibitors and methods of using same” (THE TRUSTEES OF THE UNIVERSITY OF PENNSYLVANIA, priority 2015, dated 2022)
